assay: RP, Waters ACQUITY UPLC BEH C18, 100 × 1 mm, 1.7 µm, 50 °C, 0.3 mL/min, estimated dead time 0.17 min; A: water + 0.1% formic acid + 20 mM ammonium formate; B: methanol + 0.1% formic acid + 20 mM ammonium formate; gradient (min/%B) 0/0 15/100 21/100 22/0 30/0; conditions: stereoisomer not certain

Row | LC retention time | SMILES
1 | 5.8 min | Cn1c(=O)c2[nH]c(=O)[nH]c2n(C)c1=O [1,3-Dimethyluric acid]
2 | 13.6 min | NS(=O)(=O)c1ccc(-n2nc(C(F)(F)F)cc2-c2ccc(C(=O)O)cc2)cc1 [Celecoxib Carboxylic Acid]
3 | 8.54 min | CC(C)NC(=O)NC(C)C [1.3-Diisopropylurea]
4 | 9 min | COc1cccc(CO)c1O [2-Hydroxy-3-methoxybenzyl alcohol]
5 | 14.5 min | CCCCOCN(C(=O)CS(=O)(=O)O)c1c(CC)cccc1CC [Butachlor ESA]
6 | 17 min | Cc1cc(C(C)(C)C)c(O)c(C(C)(C)C)c1 [Dibutylhydroxytoluene]
7 | 17.6 min | Cc1cc(-n2nc3ccc(Cl)cc3n2)c(O)c(C(C)(C)C)c1 [UV-326]
8 | 14 min | Nc1ccc(S(=O)(=O)Nc2cnc3ccccc3n2)cc1 [Sulfachinoxalin]
9 | 13.3 min | CCOCCOC(=O)c1ccccc1C(=O)OCCOCC [Bis(2-ethoxyethyl)phthalate]
10 | 6.3 min | CN(C)c1nc2c(ncn2C2OC(CO)C(O)C2O)c(=O)[nH]1 (stereo not drawn) [N2_N2-Dimethylguanosine]
11 | 17.7 min | CC(=O)C1(C)CC2=C(CCCC2(C)C)CC1C (stereo not drawn) [ISO E Super]
12 | 12.2 min | COc1c2ccoc2c(OC)c2oc(=O)ccc12 [Isopimpinellin]
13 | 12 min | O=C1NC(=O)C(c2ccccc2)(c2ccccc2)N1 [Phenytoin]
14 | 12.3 min | CC(C)c1ccc(NC(N)=O)cc1 [1-(4-Isopropylphenyl)-Harnstoff]
15 | 14.3 min | CCCCCC1=CC(=O)C=C(OC)C1=O [Primin]
16 | 14.6 min | Cc1cc([N+](=O)[O-])c(N)c([N+](=O)[O-])c1C [Pendimethalin-N-dealkylation]
17 | 4.7 min | NS(=O)(=O)c1cc2c(cc1Cl)NC=NS2(=O)=O [Chlorthiazide]
18 | 7.8 min | O=C(O)c1cc2ccccc2[nH]1 [Indole-2-carboxylic acid/Indole-3-carboxylic acid]
19 | 10.3 min | O=c1cc(-c2ccc(O)cc2)oc2cc(OC3OC(CO)C(O)C(O)C3OC3OCC(O)(CO)C3O)cc(O)c12 (stereo not drawn) [Apiin]
20 | 6.13 min | CCN(CCO)c1cccc(C)c1 [2-(N-Ethyl-N-m-toluidino)ethanol]
21 | 6.9 min | O=C(O)c1cc(=O)c2ccccc2[nH]1 [Kynurenic acid]
22 | 8.18 min | O=C(NCCN1CCOCC1)c1ccc(Cl)cc1 [Moclobemide]
23 | 12.4 min | Cc1cc(C(C)(C)C)cc(C)c1CC1=NCCN1 [Xylometazoline]
24 | 13.3 min | Cc1cnc(NC(=O)C2=C(O)c3ccccc3S(=O)(=O)N2C)s1 [meloxicam]
25 | 6.3 min | NC(Cc1c[nH]c2ccccc12)C(=O)O (stereo not drawn) [tryptophan]
26 | 14.4 min | O=C(NCc1ncc(C(F)(F)F)cc1Cl)c1c(Cl)cccc1Cl [Fluopicolide]

Row | LC retention time | SMILES
27 | 11.9 min | CCNc1nc(=S)nc(NC(C)(C)C)[nH]1 [Terbutryn-desmethyl]
28 | 7.76 min | CCC(C(N)=O)(C(N)=O)c1ccccc1 [PEMA]
29 | 6.5 min | N[C@@H](Cc1ccc(O)cc1)C(=O)O [L-Tyrosine]
30 | 2 min | O=S(=O)(O)C(F)(F)F [Trifluoromethanesulfonic acid]
31 | 9.89 min | Cc1ccc2n[nH]nc2c1 [5-Methyl-1-H-benzotriazol]
32 | 14 min | CCCCCC(O)CC(=O)CCc1ccc(O)c(OC)c1 (stereo not drawn) [[6]-Gingerol]
33 | 15 min | CC(=O)OC1C(=O)C2(C)C(O)CC3OCC3(OC(C)=O)C2C(OC(=O)c2ccccc2)C2(O)CC(OC(=O)C(O)C(NC(=O)c3ccccc3)c3ccccc3)C(C)=C1C2(C)C (stereo not drawn) [Taxol]
34 | 11.5 min | CN(C)CCC=C1c2ccccc2COc2ccc(CC(=O)O)cc21 [Olopatadine]
35 | 6.14 min | Cc1nccc2ccccc12 [1-Methylisochinolin]
36 | 13.3 min | CC(C)(C)Nc1nc(=O)[nH]c(=O)[nH]1
37 | 18.1 min | O=C1CCCC=CCCCCCCCCCC1 [Velvione]
38 | 8.4 min | O=C(O)C1OC(Oc2ccc3c(=O)c(-c4ccc(O)cc4)coc3c2)C(O)C(O)C1O (stereo not drawn) [Daidzein_glucuronide]
39 | 2.02 min | O=C(O)Cc1c(Cl)ccc(Cl)c1Cl [Chlorfenac]
40 | 6.08 min | Nc1nc2ccccc2[nH]1 [2-Aminobenzimidazole]
41 | 14.6 min | CC(=O)OCC(=O)C12OC(C)(C)OC1CC1C3CC(F)C4=CC(=O)C=CC4(C)C3(F)C(O)CC12C (stereo not drawn) [Fluocinonide]
42 | 7.7 min | O=C1CC[C@@H](C(=O)O)N1 [L-Pyroglutamic acid]
43 | 2.59 min | Nc1ccc(F)cc1 [Picolinafen-Fluoroaniline]
44 | 8.02 min | NS(=O)(=O)Cc1noc2ccccc12 [Zonisamide]
45 | 13.6 min | O=c1c2ccccc2oc2ccccc12 [Xanthon]
46 | 11.7 min | CC1=C(C(=O)Nc2ccccc2)CCCO1 [Pyracarbolid]
47 | 11.4 min | O=c1c(O)c(-c2ccc(O)c(O)c2)oc2cc(O)cc(O)c12 [Quercetin]
48 | 11.9 min | CCOCN(C(=O)CS(=O)(=O)O)c1c(C)cccc1CC [Acetochlor ESA]
49 | 8.45 min | N#Cc1ccccc1C#N [Phthalonitrile]
50 | 11.7 min | COc1cc(OC)n2nc(NS(=O)(=O)c3c(C(F)(F)F)ccnc3OC)nc2n1 [Pyroxsulam]
51 | 15.5 min | CCOCN(C(=O)C(=O)O)c1c(C)cccc1CC [Acetochlor OA]

The remaining lines, values behind:

Row | SMILES | LC retention time
52 | CCOP(=S)(OCC)SCCS(=O)CC (stereo not drawn) [Disulfoton-sulfoxide] | 12.7 min
53 | O=C(OC1CC2CCC(C1)[N+]21CCCC1)C(O)(c1ccccc1)c1ccccc1 (stereo not drawn) [Trospium] | 14.2 min
54 | CC1CC(O)C2(O)C13CC(OC(=O)C3O)C(C)(O)C21COC1=O (stereo not drawn) [Anisatin] | 7.91 min
55 | COP(=O)(OC)OC [Trimethyl phosphate] | 6.17 min
56 | CCCSP(=O)(OCC)SCCC [Ethoprophos] | 15 min
57 | CCCCCCCCCC(=O)OC(CC(=O)[O-])C[N+](C)(C)C [Decanoyl-L-Carnitine] | 14.5 min
58 | CCC(C(N)=O)N1CCCC1=O (stereo not drawn) [levetiracetam] | 6.9 min
59 | O=C(O)CC1(C(=O)O)CCCCC1 [Gabapentin Related Compound E] | 9.9 min
60 | CC12CCC(=O)C=C1CCC1C2CCC2(C)C(OC3OC(C(=O)O)C(O)C(O)C3O)CCC12 (stereo not drawn) [testosterone_glucuronide] | 13.6 min
61 | C=C1C(O)C2(O)OCC34C(CC5C(C)=CC(=O)C(O)C5(C)C23)OC(=O)CC14 (stereo not drawn) [Ailanthone] | 7.89 min
62 | CC(Cc1ccc(C(C)(C)C)cc1)CN1CCCCC1 (stereo not drawn) [Fenpropidin] | 13.8 min
63 | C[N+](C)(C)C [Tetramethylammonium cation] | 2 min
64 | COC(=O)c1ccccc1C(=O)OC [Dimethylphthalat DMP] | 11.2 min
65 | CC(C)(C)c1cc(-n2nc3ccc(Cl)cc3n2)c(O)c(C(C)(C)C)c1 [UV-327] | 10.2 min
66 | CC1(C)C2CC=C(CO)C1C2 (single isomer, unassigned; (-)) [(-)-Myrtenol] | 11.5 min
67 | C#CCOc1ccc(CCNC(=O)C(OCC#C)c2ccc(Cl)cc2)cc1OC (stereo not drawn) [Mandipropamid] | 14.3 min
68 | CCCCCCCCSCCOCCOCCOCCO [3,6,9-Trioxa-12-thia-eicosanol] | 18.3 min
69 | COP(=S)(NC(C)C)Oc1ccccc1C(=O)OC(C)C (stereo not drawn) [Isofenphos-methyl] | 15.5 min
70 | CC1=NNC(=O)N(N=Cc2cccnc2)C1 [Pymetrozine] | 5.76 min

Row | SMILES | LC retention time
71 | CC(=O)N1N=C(c2ccc(N)cc2)c2cc3c(cc2CC1C)OCO3 (stereo not drawn) [Talampanel] | 11.5 min
72 | CC1(C)CC(N)CC(C)(CN)C1 (stereo not drawn) [Isophorone diamine] | 2.02 min
73 | Cc1ccccc1O [2-Methylphenol] | 14.3 min
74 | CCSCCSP(=O)(OC)OC [Demeton-S-methyl] | 11.8 min
75 | CC(C)=NOCCOC(=O)C(C)Oc1ccc(Oc2cnc3cc(Cl)ccc3n2)cc1 (stereo not drawn) [Propaquizafop] | 16.8 min
76 | O=[P+](c1ccccc1)c1ccccc1 [Diphenylphosphine oxide] | 11.8 min
77 | Nc1ccc(Cl)cc1Cl [2,4-Dichloroaniline] | 17.6 min
78 | O=[N+]([O-])Nc1nccn1Cc1ccc(Cl)nc1 [Imidacloprid-olefin] | 7.92 min
79 | CNC(=O)Oc1cc(C)c(S(C)=O)c(C)c1 (stereo not drawn) [Methiocarb-sulfoxide] | 9.18 min
80 | CN1CCN(C)C1=O [1,3-Dimethyl-2-imidazolidinone] | 6.1 min
81 | CC(CCC(=O)O)C1CCC2C3CCC4CC(O)CCC4(C)C3CC(O)C12C (stereo not drawn) [Deoxycholic acid] | 17.1 min
82 | CCC(C)C1OC2(C=CC1C)CC1CC(CC=C(C)C(OC3CC(OC)C(OC4CC(OC)C(O)C(C)O4)C(C)O3)C(C)C=CC=C3COC4C(O)C(C)=CC(C(=O)O1)C34O)O2 (stereo not drawn) [Avermectin B1a (Abamectin)] | 18.1 min
83 | Cc1cc(C(F)(C(F)(F)F)C(F)(F)F)ccc1NC(=O)c1cccc(I)c1C(=O)NC(C)(C)CS(C)(=O)=O [Flubendiamide] | 15.4 min
84 | CCCCCCCCCCCCOC(=O)c1ccccc1C(=O)OCCCCCCCCCCCC [Didodecylphthalate] | 21.7 min
85 | CNC(=O)Oc1ccccc1C1OCCO1 [Dioxacarb] | 15.1 min
86 | O=P1(N(CCCl)CCCl)NCCCO1 (stereo not drawn) [Cyclophosphamide] | 10.7 min
87 | CC1=C(C(=O)Nc2ccccc2)SCCO1 [Carboxin] | 11.9 min
88 | NCCc1c[nH]c2ccccc12 [tryptamine] | 7 min

Reference: the RepoRT retention time repository (doi:10.1021/acs.analchem.1c00972)
